Results as given in patent US11149049B2, “Substituted nucleosides, nucleotides and analogs thereof” (JANSSEN BIOPHARMA, INC., priority 2017, dated 2021).
Read-outs that look alike come from different tables or passages of the source.

Assays:
[1] = biological target: hepatitis C virus RNA polymerase (Hepatitis C virus genotype 1a (isolate H77) (HCV), UniProt P27958); test: HCV polymerase assay (HCVpol); type: biochemical; details: recombinant enzyme, tritiated NMP incorporation, 2.5 hours at 30° C.
Description: The enzyme activity of hepatitis C virus RNA polymerase (HCVpol) and human rhinovirus 16 RNA polymerase (HRV16pol) is measured as an incorporation of tritiated NMP into acid-insoluble RNA products. HCVpol and HRV16pol assay reactions contain 30-100 nM recombinant enzyme, 50-500 nM heteropolymeric RNA, 0.5 μCi tritiated NTP, 0.1-1 μM of other NTPs, in a standard reaction buffer containing MgCl2. Enzymatic reactions are incubated for 2.5 hours at 30° C., in the presence of increasing concentration of inhibitor. At the end of the reaction, the total RNA is precipitated with 10% TCA, and acid-insoluble RNA products are filtered on a size exclusion 96-well plate. After washing of the plate, scintillation liquid is added and radiolabeled RNA products are detected according to standard procedures with a Trilux Microbeta scintillation counter. The compound concentration at which the enzyme-catalyzed rate is reduced by 50% (IC50) is calculated by fitting the data to a non-linear regression (sigmoidal).

[2] = biological target: human rhinovirus 16 RNA polymerase (Human rhinovirus 16 (HRV-16), UniProt Q82122); type: biochemical; details: recombinant enzyme, tritiated NMP incorporation, 2.5 hours at 30° C.; read-out: HRV16pol IC50
[3] = biological target: dengue virus NS5 polymerase domain (Dengue virus type 2, UniProt P14340); test: Dengue polymerase assay (DENVpol); details: 100 nM recombinant enzyme, 3 hours at 30° C., mean of several independent experiments
Description: The enzyme activity of dengue virus NS5 polymerase domain (DENVpol, serotype 2, New Guinea C strain) was measured as an incorporation of tritiated NMP into acid-insoluble RNA products. DENVpol assay reactions contained 100 nM recombinant enzyme, 50 nM heteropolymeric RNA, about 0.5 μCi tritiated NTP, 0.33 μM of competing cold NTP, 40 mM HEPES (pH 7.5), 3 mM dithiothreitol, and 2 mM MgCl2. Standard reactions were incubated for 3 hours at 30° C., in the presence of increasing concentration of inhibitor. At the end of the reaction, RNA was precipitated with 10% TCA, and acid-insoluble RNA products were filtered on a size exclusion 96-well plate. After washing of the plate, scintillation liquid was added and radiolabeled RNA products were detected according to standard procedures with a Trilux Topcount scintillation counter. The compound concentration at which the enzyme-catalyzed rate was reduced by 50% (IC50) was calculated by fitting the data to a non-linear regression (sigmoidal).

[4] = Cell viability (CC50) in the RSV replicon assay; details: human, HeLa-derived cells containing the stable RSV replicon, CellTiter-Glo
[5] = system: Huh-7.5 cells; test: Cytotoxicity in the DENV assay, uninfected parallel cultures; details: read-out: DENV CC50; uninfected Huh-7.5 parallel cultures
[6] = as above; details: human, DENV CC50, uninfected Huh-7.5 parallel cultures
[7] = system: human β-coronavirus strain OC43; test: Coronavirus antiviral assay (OC43); type: cell-based; details: Betacoronavirus 1, OC43, 120 h; HeLa or MRC-5 cells, five days, CellTiter-Glo; read-out: OC43CoV EC50
Description: (§1) The human β-coronavirus strain OC43 was purchased from ATCC (Manassas, Va.; item numbers VR-1558 and VR-740, respectively). 24 hours prior to dosing, HeLa human cervix epithelial cells (ATCC, CCL-2) or MRC-5 human lung fibroblast (ATCC, CCL-171) were plated in 96 well plates at a density of 1.5×10^5/ml in DMEM medium supplemented with 10% fetal bovine serum, 1% HEPES buffer, 1% Penicillin/Streptomycin and 1% non-essential amino acids (all Mediatech, Manassas, Va.). At the day of infection, serially diluted compounds were added to cells and incubated for 4 hours. After the end of the 4 hour pre-incubation period, cells were infected with either coronavirus strain OC43 or 229E. The virus inoculum was selected to cause 80-90% cytopathic effect. Infected cells were incubated for five days at 37° C., 5% CO2. To develop the assay, 100 μl media was replaced with 100 μl CellTiter-Glo® reagent (Promega, Madison, Wis.), and incubated for 10 min at room temperature. Luminescence was measured on a Victor X3 multi-label plate reader. Potential compound cytotoxicity was determined using uninfected parallel cultures.

[8] = Toxicity (CC50) in the HRV1B assay; details: human
[9] = in vitro; details: human
[10] = system: Dengue virus type 2 NG-C or Dengue virus type 4 H241; test: Dengue antiviral assay (DENV); type: cell-based; details: Huh-7.5 cells, five to six days, CellTiter-Glo
Description: The Dengue virus type 2 strain New Guniea C (NG-C) and the Dengue virus type 4 strain H241 were purchased from ATCC (Manassas, Va.; item numbers VR-1584 and VR-1490, respectively). 24 hours prior to dosing, Huh-7.5 cells were plated in 96 well plates at a density of 1.5×10^5/ml in DMEM medium supplemented with 10% fetal bovine serum, 1% HEPES buffer, 1% Penicillin/Streptomycin and 1% non-essential amino acids (all Mediatech, Manassas, Va.). At the day of infection, serially diluted compounds were added to cells and incubated for 4 hours. After the end of the 4 hour pre-incubation period, cells were infected with either Dengue virus type 2 NG-C or Dengue virus type 4 H241. The virus inoculum was selected to cause 80-90% cytopathic effect in five to six days. Infected cells were incubated for five (NG-C) to six (H241) days at 37° C., 5% CO2. To develop the assay, 100 μl media was replaced with 100 μl CellTiter-Glo® reagent (Promega, Madison, Wis.), and incubated for 10 min at room temperature. Luminescence was measured on a Victor X3 multi-label plate reader. Potential compound cytotoxicity was determined using uninfected parallel cultures.

[11] = system: Ebola minigenome; test: microbe, parasite or virus in culture; type: cell-based
[12] = system: RSV replicon; test: microbe, parasite or virus in culture; type: cell-based
[13] = Cytotoxicity in the coronavirus assay, uninfected parallel cultures; type: cell-based; details: human, read-out: OC43CoV CC50
Description: as §1

[14] = system: Human rhinovirus 1B; test: Rhinovirus antiviral assay (HRV1B); type: cell-based; details: Rhinovirus A, 96 h, read-out: HRV 1B EC50, HeLa-OHIO cells, 4 d, CellTiter-Glo
[15] = Zaire ebolavirus, HEp-2, 48 h, read-out: EBOV EC50, HEp-2 cells, Ebola minigenome, 48 hours
[16] = human respiratory syncytial virus, 168 h, read-out: RSV EC50, HeLa-derived RSV replicon cells, 7 days, luciferase

Chain of hepatitis C virus RNA polymerase (P27958 2421-3011 limits assumed): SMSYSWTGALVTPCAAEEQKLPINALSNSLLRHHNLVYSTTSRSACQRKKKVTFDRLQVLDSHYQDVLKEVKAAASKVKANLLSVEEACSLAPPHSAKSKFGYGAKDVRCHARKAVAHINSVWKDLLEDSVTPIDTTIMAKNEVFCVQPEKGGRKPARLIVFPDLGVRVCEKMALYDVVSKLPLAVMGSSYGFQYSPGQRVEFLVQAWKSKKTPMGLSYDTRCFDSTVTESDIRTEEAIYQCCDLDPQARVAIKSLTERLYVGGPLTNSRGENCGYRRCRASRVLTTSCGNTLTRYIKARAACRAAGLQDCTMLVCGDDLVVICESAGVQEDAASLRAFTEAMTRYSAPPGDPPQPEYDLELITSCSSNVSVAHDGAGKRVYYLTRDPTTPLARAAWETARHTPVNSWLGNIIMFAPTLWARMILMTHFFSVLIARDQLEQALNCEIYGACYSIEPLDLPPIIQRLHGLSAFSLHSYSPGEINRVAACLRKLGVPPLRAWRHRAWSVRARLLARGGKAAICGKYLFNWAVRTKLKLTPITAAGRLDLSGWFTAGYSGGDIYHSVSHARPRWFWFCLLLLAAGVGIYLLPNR
Chain of human rhinovirus 16 RNA polymerase (Q82122 1694-2153 limits assumed): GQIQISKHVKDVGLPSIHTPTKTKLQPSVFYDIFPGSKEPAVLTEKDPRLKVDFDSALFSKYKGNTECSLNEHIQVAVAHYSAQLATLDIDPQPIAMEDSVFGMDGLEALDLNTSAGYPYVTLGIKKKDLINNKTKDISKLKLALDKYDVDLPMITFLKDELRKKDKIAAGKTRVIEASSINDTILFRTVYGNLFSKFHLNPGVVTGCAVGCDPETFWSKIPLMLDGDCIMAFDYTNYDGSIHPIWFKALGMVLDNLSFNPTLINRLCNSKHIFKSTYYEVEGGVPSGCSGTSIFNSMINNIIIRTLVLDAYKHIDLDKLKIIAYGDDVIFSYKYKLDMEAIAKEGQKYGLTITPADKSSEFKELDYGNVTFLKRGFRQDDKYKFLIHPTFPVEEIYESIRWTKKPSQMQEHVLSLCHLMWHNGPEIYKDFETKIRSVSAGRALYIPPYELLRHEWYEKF

SMILES | IC50 [1] | IC50 [2] | IC50 [3] | CC50 at 7 days [4] | CC50 [5] | CC50 [6] | EC50 [7] | CC50 at 4 d [8] | CC50 [9] | EC50 ([10]; Dengue virus, Huh7.5, 144 h) | EC50 [11, 15] | EC50 [12, 16] | CC50 at 5 days [13] | EC50 [14] | EC50 [10] | EC50 ([11]; read-out: EBOV EC50, HEp-2 cells, Ebola minigenome, 48 hours) | EC50 ([12]; read-out: RSV EC50, HeLa-derived RSV replicon cells, 7 days, luciferase)
N#C[C@@]1(c2ccc3c(N)ncnn23)O[C@](CF)(COP(=O)(O)OP(=O)(O)OP(=O)(O)O)[C@@H](O)[C@H]1O [Compound 13, ((2R,3S,4R,5R)-5-(4-Aminopyrrolo[2,1-f][1,2,4]triazin-7-yl)-5-cyano-2-(fluoromethyl)-3,4-dihydroxytetrahydrofuran-2-yl)methyl tetrahydrogen triphosphate] | > 10000 nM | 210 nM | > 10000 nM |  |  |  |  |  |  |  |  |  |  |  |  |  | 
CC(C)CCOC(=O)C[C@H](NP(=O)(OC[C@@]1(F)O[C@@](C#N)(c2ccc3c(N)ncnn23)[C@H](O)[C@@H]1O)Oc1ccccc1)C(=O)OCCC(C)C (stereo partly drawn) [Compound 7, Diisopentyl ((((2S,3S,4R,5R)-5-(4-aminopyrrolo[2,1-f][1,2,4]triazin-7-yl)-5-cyano-2-fluoro-3,4-dihydroxytetrahydrofuran-2-yl)methoxy)(phenoxy)phosphoryl)-L-aspartate] |  |  |  | 21000 nM | 21000 nM | 15000 nM | 56 nM | 12400 nM | 14000 nM | 1.4 nM | 200 nM | 30 nM | 13000 nM | 150 nM |  |  | 
N#C[C@@]1(c2ccc3c(N)ncnn23)O[C@H](COP(=O)(O)OP(=O)(O)OP(=O)(O)O)[C@@H](O)[C@H]1O [Compound C2, reference compound] | 1000 nM | 270 nM | 3600 nM |  |  |  |  |  |  |  |  |  |  |  |  |  | 
CC(C)OC(=O)[C@@H](C)NP(=O)(OC[C@@]1(N=[N+]=[N-])O[C@@](C#N)(c2ccc3c(N)ncnn23)[C@H](O)[C@@H]1O)Oc1ccccc1 (stereo partly drawn) [Compound 11, Isopropyl ((((2R,3S,4R,5R)-5-(4-aminopyrrolo[2,1-f][1,2,4]triazin-7-yl)-2-azido-5-cyano-3,4-dihydroxytetrahydrofuran-2-yl)methoxy)(phenoxy)phosphoryl)-D-alaninate] |  |  |  | 13600 nM |  |  | > 50000 nM | 59000 nM |  |  |  | 1300 nM | > 50000 nM | > 100000 nM |  |  | 
N#C[C@@]1(c2ccc3c(N)ncnn23)O[C@](F)(COP(=O)(O)OP(=O)(O)OP(=O)(O)O)[C@@H](O)[C@H]1O [Compound 12, ((2S,3S,4R,5R)-5-(4-Aminopyrrolo[2,1-f][1,2,4]triazin-7-yl)-5-cyano-2-fluoro-3,4-dihydroxytetrahydrofuran-2-yl)methyl tetrahydrogen triphosphate] | 400 nM | 130 nM | 1100 nM |  |  |  |  |  |  |  |  |  |  |  |  |  | 
C[C@H](NP(=O)(OC[C@@]1(F)O[C@@](C#N)(c2ccc3c(N)ncnn23)[C@H](O)[C@@H]1O)Oc1ccccc1)C(=O)OCC(C)(C)C (stereo partly drawn) [Compound 8, Neopentyl ((((2S,3S,4R,5R)-5-(4-aminopyrrolo[2,1-f][1,2,4]triazin-7-yl)-5-cyano-2-fluoro-3,4-dihydroxytetrahydrofuran-2-yl)methoxy)(phenoxy)phosphoryl)-L-alaninate] |  |  |  |  |  |  | 100 nM | 64000 nM | > 100000 nM | 110 nM | 500 nM | 30 nM | > 50000 nM |  | 140 nM | 800 nM | 26 nM
CCC(CC)COC(=O)[C@@H](C)NP(=O)(OC[C@@]1(F)O[C@@](C#N)(c2ccc3c(N)ncnn23)[C@H](O)[C@@H]1O)Oc1ccccc1 (stereo partly drawn) [Compound 9, 2-Ethylbutyl ((((2S,3S,4R,5R)-5-(4-aminopyrrolo[2,1-f][1,2,4]triazin-7-yl)-5-cyano-2-fluoro-3,4-dihydroxytetrahydrofuran-2-yl)methoxy)(phenoxy)phosphoryl)-D-alaninate] |  |  |  | 8100 nM |  | 12000 nM | 25 nM | 33000 nM | ~50000 nM | 70 nM | 250 nM | 18 nM | 34000 nM | 130 nM |  |  | 
CCCOC(=O)[C@H](C)NP(=O)(N[C@@H](C)C(=O)OCCC)OC[C@@]1(F)O[C@@](C#N)(c2ccc3c(N)ncnn23)[C@H](O)[C@@H]1O [Compound 10] |  |  |  | > 100000 nM |  |  | 2300 nM | > 100000 nM |  |  |  | 170 nM | > 50000 nM | 3100 nM |  |  | 
N#C[C@@]1(c2ccc3c(N)ncnn23)O[C@@](COP(=O)(O)OP(=O)(O)OP(=O)(O)O)(N=[N+]=[N-])[C@@H](O)[C@H]1O [Compound 14, ((2R,3S,4R,5R)-5-(4-Aminopyrrolo[2,1-f][1,2,4]triazin-7-yl)-2-azido-5-cyano-3,4-dihydroxytetrahydrofuran-2-yl)methyl tetrahydrogen triphosphate] | 300 nM | 40 nM | 1100 nM |  |  |  |  |  |  |  |  |  |  |  |  |  | 
CC(C)OC(=O)[C@@H](C)NP(=O)(OC[C@@]1(F)O[C@@](C#N)(c2ccc3c(N)ncnn23)[C@H](O)[C@@H]1O)Oc1ccccc1 (stereo partly drawn) [Compound 5, Isopropyl ((((2S,3S,4R,5R)-5-(4-aminopyrrolo[2,1-f][1,2,4]triazin-7-yl)-5-cyano-2-fluoro-3,4-dihydroxytetrahydrofuran-2-yl)methoxy)(phenoxy)phosphoryl)-D-alaninate] |  |  |  | > 100000 nM |  | > 100000 nM | 25300 nM |  |  | 7370 nM |  | 2740 nM | > 100000 nM |  |  |  | 
